Measurements reported in patent US20230201134A1, “COMPOSITIONS FOR THE MANAGEMENT OF DEMYELINATING DISORDERS” (priority 2021, published 2023).

How the values were obtained:
Type in all cases: in vivo, mouse
[1] = tested on: Myelin Oligodendrocyte Glycoprotein (MOG), Brain Derived Neurotrophic Factor (BDNF); assay: Dose response study, MOG and BDNF in serum; conditions: orally once per day for 8 weeks; from serum MOG and BDNF dose response
From the text: (§1) The Eight-week-old male C56BL/6 J mice were selected and randomized into ten animals in each group (Table 1). Demyelination was induced by 0.3% cuprizone in combination with rapamycin (Hilary H S, Kathryn K B, Daniela C P, Priya N, Wendy B M. A New Model of Cuprizone-Mediated Demyelination/Remyelination. Am Society Neurochem. 2014: 1-16). Briefly, groups undergo demyelination by feeding on a diet containing 0.3% cuprizone mixed into Rodent Diet. These mice received additionally intra-peritoneal rapamycin injections 5 days a week with a vehicle solution.
(§2) Withaferin A or BDMC were administered orally once per day to mouse, for 8 weeks after treatment with Cuprizone and Rapamycin (Table 1). The dose response of BDMC or Withaferin was assessed by measuring concentration of biomarkers, Myelin Oligodendrocyte Glycoprotein (MOG) (FIG. 1) Brain Derived Neurotrophic Factor (BDNF) (FIG. 2), in serum.

[2] = tested on: Myelin basic protein (MBP); assay: Myelin basic protein in brain tissue homogenate (ELISA), cuprizone/rapamycin demyelination model; conditions: compared to the demyelination control, Withaferin A 25 mg/kg, BDMC 12.5 mg/kg, combination 37.5 mg/kg, orally once per day
From the text: as §1
(§3) After 8 weeks of treatment, all cuprizone feedings and all injections of rapamycin was discontinued. The animals were subjected to behavioral analysis and at end of study, brain samples and serum samples were collected for estimation of Molecular and protein biomarkers by ELISA and Immunohistochemistry of brain was assessed for Demyelination/Remyelination.
as §2, with “serum. […]” for “serum.”

C-reactive Protein (CRP) = assay: C-reactive protein (ELISA), cuprizone/rapamycin demyelination model; conditions: compared to the demyelination control, Withaferin A 25 mg/kg, BDMC 12.5 mg/kg, combination 37.5 mg/kg, orally once per day
From the text: as §1, §3
as §2, with “serum. […]” for “serum.”

[3] = tested on: Chondroitin Sulfate Proteoglycan 4 (NG2); assay: NG2 in brain tissue homogenate (ELISA), cuprizone/rapamycin demyelination model; conditions: compared to the demyelination control, Withaferin A 25 mg/kg, BDMC 12.5 mg/kg, combination 37.5 mg/kg, orally once per day
From the text: as §1, §3
as §2, with “serum. […]” for “serum.”

[4] = tested on: Transient receptor potential ankyrin 1 (TRPA1); assay: TRPA1 in brain tissue homogenate (ELISA), cuprizone/rapamycin demyelination model; conditions: compared to the demyelination control, Withaferin A 25 mg/kg, BDMC 12.5 mg/kg, combination 37.5 mg/kg, orally once per day
From the text: as §1, §3
as §2, with “serum. […]” for “serum.”

C56BL/6 J mice [5] = assay: Locomotor activity test (Actophotometer) in demyelinated mice; conditions: 5 minutes, p.o., Mean ± S.E., 10 animals; for locomotor activity score, 3 hr after treatment: demyelinated control 148 ± 14.48; for locomotor activity score, 2 hr after treatment: demyelinated control 158 ± 14.02; for locomotor activity score, 1 hr after treatment: demyelinated control 170 ± 20.18
From the text: as §1, §3
Actophotometer (Activity cage) is designed to study the spontaneous or induced or locomotor activity in small animals like mice or rats. In this apparatus, the Optical sensors and emitters are present to record the horizontal movements of the animals on a six-digit digital counter display. Each animal was placed in Actophotometer for 5 minutes and basal activity score was recorded for all animals. Each animal was treated with respective drugs and activity score was recorded after 1, 2, and 3 hours.

[6] = tested on: Platelet Derived Growth Factor Receptor alpha (PDGFRa); assay: PDGFRa in brain tissue homogenate (ELISA), cuprizone/rapamycin demyelination model; conditions: compared to the demyelination control, Withaferin A 25 mg/kg, BDMC 12.5 mg/kg, combination 37.5 mg/kg, orally once per day
From the text: as §1, §3
as §2, with “serum. […]” for “serum.”

[7] = tested on: CXC chemokine receptor 2 (CXCR2); assay: CXCR2 in brain tissue homogenate (ELISA), cuprizone/rapamycin demyelination model; conditions: compared to the demyelination control, Withaferin A 25 mg/kg, BDMC 12.5 mg/kg, combination 37.5 mg/kg, orally once per day
From the text: as §1, §3
as §2, with “serum. […]” for “serum.”

[8] = tested on: Amphoterin-induced protein 3 (AMIGO3); assay: AMIGO3 in brain tissue homogenate (ELISA), cuprizone/rapamycin demyelination model; conditions: compared to the demyelination control, Withaferin A 25 mg/kg, BDMC 12.5 mg/kg, combination 37.5 mg/kg, orally once per day
From the text: as §1, §3
as §2, with “serum. […]” for “serum.”

C56BL/6 J mice [9] = assay: Motor coordination and learning: Rotarod test in demyelinated mice; conditions: Rotarod 16 rpm, 60 s, Withaferin A 25 mg/kg, BDMC 12.5 mg/kg, combination 25 + 12.5 mg/kg, demyelinated control 3/10
From the text: as §1, §3
Motor coordination and balance were evaluated in a Rotarod apparatus which consists of a motor-driven rotating rod whose speed can be adjusted. All mice were evaluated on the Rotarod three times a day for two consecutive days, with the rotation set at 15 to 16 revolutions per minute (rpm) (Rozas, G.; Guerra, M. J.; Labandeira Garcia, J. L. An automated Rotarod method for quantitative drug-free evaluation of overall motor deficits in rat models of Parkinsonism. Brain Res. Protoc. 1997, 2, 75-84). To test the performance, the mice were placed on the rotating cylinder at an angle of 45 with an initial rotation speed of 16 rpm, and were allowed to run for 60 s. The trial was repeated after 5-10 min. The falls and flips (when the animal hangs on to the cylinder and continues all the way around) were recorded within 60 s of each trial.

C56BL/6 J mice [10] = assay: Grip strength test in demyelinated mice; conditions: forelimb strength, compared to the demyelinated control; Withaferin A 25 mg/kg, BDMC 12.5 mg/kg, combination 37.5 mg/kg
From the text: as §1, §3

C56BL/6 J mice [11] = assay: Immunohistochemistry of brain for demyelination/remyelination; conditions: GST-π staining; Withaferin A 25 mg/kg, BDMC 12.5 mg/kg, combination 37.5 mg/kg; versus demyelinated control
From the text: as §1, §3

O=C(/C=C/c1ccc(O)cc1)CC(=O)/C=C/c1ccc(O)cc1 [BDMC, Bisdemethoxycurcumin]
optimum effective dose [1]: 12.5 mg/kg | proliferation of Myelin basic protein (MBP) [2]: 122% | down regulation of C-reactive Protein (CRP) inflammatory marker (C-reactive Protein (CRP)): 35% | upregulation of NG2 [3]: 90% | down regulation of TRPA1 inflammatory marker [4]: 17% | locomotor activity score, 3 hr after treatment (C56BL/6 J mice [5]): 190 ± 7.35 | locomotor activity score, 2 hr after treatment (C56BL/6 J mice [5]): 200 ± 10.70 | locomotor activity score, 1 hr after treatment (C56BL/6 J mice [5]): 220 ± 21.11 | upregulation of PDGFRa [6]: 73% | down regulation of CXC chemokine receptor 2 (CXCR2) inflammatory marker [7]: 35% | down regulation of AMIGO3 inflammatory marker [8]: 27% | No. of mice which stayed on rota rod/total no. of animals (C56BL/6 J mice [9]): 5/10 | improvement in the grip strength (C56BL/6 J mice [10]): 37.5%

CC1=C(CO)C(=O)O[C@@H]([C@@H](C)[C@H]2CC[C@H]3[C@@H]4C[C@H]5O[C@]56[C@@H](O)C=CC(=O)[C@]6(C)[C@H]4CC[C@]23C)C1 [Withaferin A]
immunohistochemistry findings of cerebellar cortical layer (C56BL/6 J mice [11]): few degenerated Purkinje cells with pyknotic cell bodies and inconspicuous dendritic processes | optimum effective dose [1]: 25 mg/kg | proliferation of Myelin basic protein (MBP) [2]: 64% | down regulation of C-reactive Protein (CRP) inflammatory marker (C-reactive Protein (CRP)): 32% | upregulation of NG2 [3]: 30% | down regulation of TRPA1 inflammatory marker [4]: 43% | locomotor activity score, 3 hr after treatment (C56BL/6 J mice [5]): 200 ± 9.01 | locomotor activity score, 2 hr after treatment (C56BL/6 J mice [5]): 210 ± 17.23 | locomotor activity score, 1 hr after treatment (C56BL/6 J mice [5]): 240 ± 17.22 | upregulation of PDGFRa [6]: 22% | down regulation of CXC chemokine receptor 2 (CXCR2) inflammatory marker [7]: 32% | down regulation of AMIGO3 inflammatory marker [8]: 36% | No. of mice which stayed on rota rod/total no. of animals (C56BL/6 J mice [9]): 5 out of 10 | No. of mice which stayed on rota rod/total no. of animals (C56BL/6 J mice [9]; listed as Withaferin): 5/10 | improvement in the grip strength (C56BL/6 J mice [10]): 25%
